From US10640545B2 (THE GOVERNORS OF THE UNIVERSITY OF ALBERTA, priority 2017, dated 2020)
“Also recorded” adds a separate entry of the source. *1 amine or outer side, *2 acyl side, *3 side chain or, on linkers, in order; H or OH if unused. Where a SMILES comes first, the peptide text is derived from it. [ ]: non-standard residue; d: D form. Phe(4-Br) = N[C@@H](Cc1ccc(Br)cc1)C(=O)O; X1 = N=C(N)NCCCN(N[*:1])C(=O)[*:2]; αMeR = C[C@](N)(CCCNC(=N)N)C(=O)O; NMeL = CN[C@@H](CC(C)C)C(=O)O; pGlu = O=C1CC[C@@H](C(=O)O)N1; αMeL = CC(C)C[C@](C)(N)C(=O)O; Nle = CCCC[C@H](N)C(=O)O; Aib = CC(C)(N)C(=O)O

How the values were obtained:
anesthetized mice = assay: Blood pressure assay in anesthetized mice; assay type: in vivo; details: 1.4 μM/kg body weight injected; for blood pressure lowering (hypotensive) effect: SBP, DBP, MABP
Method: Synthetic peptides 8-19 were tested for blood pressure lowering abilities in anesthetized mice. Apelin peptides were injected through […], monitoring blood pressure (BP) and heart rate (HR) over 60 minutes.
Mice were anaesthetized with 1.5% isoflurane/oxygen, and body temperature was monitored and maintained at 36° C. by a heating pad. The aorta was cannulated via the right carotid artery using a PV loop catheter (Model 1.2F from Scisense, Transonic) in order to continuously record arterial blood pressure and heart rate (LabScribe 2.0, Scisense). […] Results are reported as systolic blood pressure (SBP), diastolic blood pressure (DBP), mean arterial blood pressure (MABP) and heart rate (HR).
Apelin peptides 11, 56-59 as well as the KLKB1-cleavage fragments 54 and 55 were tested for blood pressure lowering abilities in anesthetized mice.
Mice were anesthetized with 1.5% isoflurane/oxygen, and body temperature was monitored and maintained at 36° C. by a heating pad. The aorta was cannulated via the right carotid artery using a PV loop catheter (model 1.2F from Scisense, Transonic) in order to continuously record arterial blood pressure and heart rate (LabScribe 2.0, Scisense). Compounds 11, and 54-59 or 55-59 (1.4 μM/kg body weight) or the same volume of saline was injected via the right jugular vein. Results are reported as systolic blood pressure (SBP), diastolic blood pressure (DBP), mean arterial blood pressure (MABP), and heart rate (HR) shown in FIGS. 15A-D.
Apelin peptides were delivered systemically via the right internal jugular vein while blood pressure (BP) and heart rate (HR) were continuously monitored in the aorta cannulated via the right carotid artery. All N-terminally extended apelin peptides, except 58, show pronounced and time-stable blood pressure lowering effects (FIGS. 15a-d). […] This correlates with the results obtained from the Ca^2+ mobilization assay.

[1] = biological target: T1, wild-type rat apelin receptor (Rattus norvegicus, UniProt Q9JHG3); assay: Radioligand binding, displacement of [125I]-pyr-1-apelin-13 on CHO cell membranes; details: for Ki: displacement of [125I]-pyr-1-apelin-13 (0.2 nM), CHO membranes, rat apelin receptor-EGFP, means ± SE, read-out: Affinity Ki; for receptor binding affinity (in words): rat apelin receptor; for weaker affinity compared to 1, by a factor: ratio of Ki to native 1
T1 construct: expressed in transfected cells
T1 sequence (Q9JHG3 1-377): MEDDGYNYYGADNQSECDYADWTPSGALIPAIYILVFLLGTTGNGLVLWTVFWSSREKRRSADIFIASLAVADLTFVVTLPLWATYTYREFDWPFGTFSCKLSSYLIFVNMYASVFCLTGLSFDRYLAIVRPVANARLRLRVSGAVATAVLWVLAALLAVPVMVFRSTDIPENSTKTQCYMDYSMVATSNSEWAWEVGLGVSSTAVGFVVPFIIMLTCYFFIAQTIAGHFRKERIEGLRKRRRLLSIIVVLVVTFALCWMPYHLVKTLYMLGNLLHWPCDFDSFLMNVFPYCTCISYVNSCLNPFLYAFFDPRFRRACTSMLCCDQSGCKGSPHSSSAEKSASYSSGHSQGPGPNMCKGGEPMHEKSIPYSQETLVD
Method: This experiment evaluated the ability of peptides of the present embodiments to bind to the wild-type rat apelin receptor, in order to examine the impact of synthetic modification within the critical RPRL motif of the apelin peptides.
Membrane preparations from CHO cells stably expressing the wild-type rat apelin receptor-EGFP were prepared as previously described (Gerbier et al., New Structural Insights Into The Apelin Receptor: Identification Of Key Residues For Apelin binding; FASEB J. 2015, 29, 314-322; Iturrioz et. al., Development Of Original Metabolically-Stable Apelin-17 Peptides With Diuretic And Cardiovascular Effects; FASEB J. 2017, 31, 687-700.) Crude membrane preparations (1 μg total mass of membranes/assay) were incubated for 3 h at 20° C. with 0.2 nM [^125I]-pyr-1-apelin-13 (monoiodinated on Lys^8 with Bolton-Hunter reagent, Perkin Elmer, Wellesley, Mass., USA) in binding buffer (50 mM HEPES, 5 mM MgCl2 1149 pH 7.5, BSA 1%) alone or in presence of the different compounds at various concentrations. The reaction was stopped by adding 4 mL of cold binding buffer, filtered on Whatman GF/C filters and washed with 5 mL of cold binding buffer. Radioactivity was then counted using a Wizard 1470 Wallac gamma counter (Perkin Elmer, Turku, Finland). Binding experiment data were analyzed with Graph Pad Prism.

in vitro = details: human, plasma
[2] = tested on: recombinant human neprilysin (rhNEP, Sino Biological); assay: rhNEP diluted in Tris buffer (100 mM Tris, 100 mM NaCl, 10 μM ZnCl2, pH 7.5), 3.1 nM final concentration; details: 37° C., up to 72 h

| Compound | blood pressure lowering (hypotensive) effect (anesthetized mice) | Ki [1] [nM] | receptor binding affinity (in words) [1] | remaining at 0.5 h, 80 µM (in vitro) [%] | remaining at 1 h, 80 µM (in vitro) [%] | cleaved bond [2] | weaker affinity compared to 1, by a factor [1] | effect on heart rate (HR) (anesthetized mice) |
| --- | --- | --- | --- | --- | --- | --- | --- | --- |
| CCCC[C@H](NC(=O)[C@@H]1CCCN1C(=O)CNC(=O)[C@H](CCCCN)NC(=O)[C@H](Cc1c[nH]cn1)NC(=O)[C@H](CO)NC(=O)[C@@H](CC(C)C)NC(=O)[C@H](CCCNC(=N)N)NC(=O)[C@@H]1CCCN1C(=O)[C@H](CCCNC(=N)N)NC(=O)[C@@H]1CCC(=O)N1)C(=O)NC(C)(C)C(=O)N[C@@H](Cc1ccc(Br)cc1)C(=O)O [Peptide 8, pGlu-Arg-Pro-Arg-D-Leu-Ser-His-Lys-Gly-Pro-Nle-Aib-paraBrPhe] ([pGlu]RPR[dL]SHKGP[Nle][Aib][Phe(4-Br)]-OH; C-terminus assumed) | no ability to decrease blood pressure; also recorded: inactivity | 0.12 ± 0.035 | modest improvement in receptor binding | 32 ± 2 | 22 ± 1 | – | – | – |
| pGlu-Arg-Pro-αMeArg-Leu-Ser-His-Lys-Gly-Pro-Nle-Aib-paraBrPhe | – | – | – | – | – | Nle11-Aib12, minor | – | – |
| CCCC[C@H](NC(=O)[C@@H]1CCCN1C(=O)CNC(=O)[C@H](CCCCN)NC(=O)[C@H](Cc1c[nH]cn1)NC(=O)[C@H](CO)NC(=O)[C@H](CC(C)C)NC(=O)[C@H](CCCNC(=N)N)NC(=O)[C@@H]1CCCN1C(=O)[C@H](CCCNC(=N)N)NC(=O)[C@@H]1CCC(=O)N1)C(=O)NC(C)(C)C(=O)N[C@@H](Cc1ccc(Br)cc1)C(=O)O [Peptide 4] ([pGlu]RPRLSHKGP[Nle][Aib][Phe(4-Br)]-OH; C-terminus assumed) | potent physiological effects | – | – | 77 ± 19 | 65 ± 14 | – | 6 | – |
| CCCC[C@H](NC(=O)[C@@H]1CCCN1C(=O)CNC(=O)[C@H](CCCCN)NC(=O)[C@H](Cc1c[nH]cn1)NC(=O)[C@H](CO)NC(=O)[C@H](CC(C)C)NC(=O)[C@](C)(CCCNC(=N)N)NC(=O)[C@@H]1CCCN1C(=O)[C@H](CCCNC(=N)N)NC(=O)[C@@H]1CCC(=O)N1)C(=O)NC(C)(C)C(=O)N[C@@H](Cc1ccc(Br)cc1)C(=O)O [Peptide 12, pGlu-Arg-Pro-αMeArg-Leu-Ser-His-Lys-Gly-Pro-Nle-Aib-paraBrPhe] ([pGlu]RP[αMeR]LSHKGP[Nle][Aib][Phe(4-Br)]-OH; C-terminus assumed) | – | 0.56 ± 0.033 | – | – | 62 ± 6 | – | 2 | – |
| CCCC[C@H](NC(=O)[C@@H]1CCCN1C(=O)CNC(=O)[C@H](CCCCN)NC(=O)[C@H](Cc1c[nH]cn1)NC(=O)[C@H](CO)NC(=O)[C@](C)(CC(C)C)NC(=O)[C@H](CCCNC(=N)N)NC(=O)[C@@H]1CCCN1C(=O)[C@H](CCCNC(=N)N)NC(=O)[C@@H]1CCC(=O)N1)C(=O)NC(C)(C)C(=O)N[C@@H](Cc1ccc(Br)cc1)C(=O)O [Peptide 14, pGlu-Arg-Pro-Arg-αMeLeu-Ser-His-Lys-Gly-Pro-Nle-Aib-paraBrPhe] ([pGlu]RPR[αMeL]SHKGP[Nle][Aib][Phe(4-Br)]-OH; C-terminus assumed) | without inducing any vasoactive effects | 0.17 ± 0.05 | modest improvement in receptor binding | 45 ± 6 | 38 ± 3 | – | – | significant and pronounced effect of increasing the murine HR; also recorded: had an impact on the heart rate |
| CCCC[C@H](NC(=O)[C@@H]1CCCN1C(=O)CNC(=O)[C@H](CCCCN)NC(=O)[C@H](Cc1c[nH]cn1)NC(=O)[C@H](CO)NC(=O)[C@H](CC(C)C)NC(=O)[C@](C)(CCCNC(=N)N)NC(=O)[C@@H]1CCCN1C(=O)[C@H](CCCNC(=N)N)NC(=O)[C@H](CCC(N)=O)NC(=O)[C@H](CCCNC(=N)N)NC(=O)[C@H](CCCNC(=N)N)NC(=O)[C@H](Cc1ccccc1)NC(=O)[C@@H](N)CCCCN)C(=O)NC(C)(C)C(=O)N[C@@H](Cc1ccc(Br)cc1)C(=O)O [Peptide 13, Lys-Phe-Arg-Arg-Gln-Arg-Pro-αMeArg-Leu-Ser-His-Lys-Gly-Pro-Nle-Aib-paraBrPhe] (H-KFRRQRP[αMeR]LSHKGP[Nle][Aib][Phe(4-Br)]-OH; N-terminus and C-terminus assumed) | without inducing any vasoactive effects | 0.13 ± 0.032 | – | 61 ± 10 | 55 ± 4 | – | – | had an impact on the heart rate |
| CCCC[C@H](NC(=O)[C@@H]1CCCN1C(=O)CNC(=O)[C@H](CCCCN)NC(=O)[C@H](Cc1c[nH]cn1)NC(=O)[C@H](CO)NC(=O)[C@H](CC(C)C)NC(=O)N(CCCNC(=N)N)NC(=O)[C@@H]1CCCN1C(=O)[C@H](CCCNC(=N)N)NC(=O)[C@@H]1CCC(=O)N1)C(=O)NC(C)(C)C(=O)N[C@@H](Cc1ccc(Br)cc1)C(=O)O [Peptide 16, pGlu-Arg-Pro-azaArg-Leu-Ser-His-Lys-Gly-Pro-Nle-Aib-paraBrPhe] ([pGlu]RP[X1]LSHKGP[Nle][Aib][Phe(4-Br)]-OH; C-terminus assumed) | without inducing any vasoactive effects | 1 ± 0.1 | – | 83 ± 3 | 57 ± 1 | – | 3 | significant and pronounced effect of increasing the murine HR; also recorded: had an impact on the heart rate |
| CCCC[C@H](NC(=O)[C@@H]1CCCN1C(=O)CNC(=O)[C@H](CCCCN)NC(=O)[C@H](Cc1c[nH]cn1)NC(=O)[C@H](CO)NC(=O)[C@H](CC(C)C)N(C)C(=O)[C@H](CCCNC(=N)N)NC(=O)[C@@H]1CCCN1C(=O)[C@H](CCCNC(=N)N)NC(=O)[C@@H]1CCC(=O)N1)C(=O)NC(C)(C)C(=O)N[C@@H](Cc1ccc(Br)cc1)C(=O)O [Peptide 10, pGlu-Arg-Pro-Arg-NMeLeu-Ser-His-Lys-Gly-Pro-Nle-Aib-paraBrPhe] ([pGlu]RPR[NMeL]SHKGP[Nle][Aib][Phe(4-Br)]-OH; C-terminus assumed) | no ability to decrease blood pressure; also recorded: without inducing any vasoactive effects | 0.1 ± 0.048 | modest improvement in receptor binding | 77 ± 3 | 59 ± 6 | – | – | significant and pronounced effect of increasing the murine HR; also recorded: had an impact on the heart rate |
| CCCC[C@H](NC(=O)[C@@H]1CCCN1C(=O)CNC(=O)[C@H](CCCCN)NC(=O)[C@H](Cc1c[nH]cn1)NC(=O)[C@H](CO)NC(=O)[C@@H](CC(C)C)NC(=O)[C@H](CCCNC(=N)N)NC(=O)[C@@H]1CCCN1C(=O)[C@H](CCCNC(=N)N)NC(=O)[C@H](CCC(N)=O)NC(=O)[C@H](CCCNC(=N)N)NC(=O)[C@H](CCCNC(=N)N)NC(=O)[C@H](Cc1ccccc1)NC(=O)[C@@H](N)CCCCN)C(=O)NC(C)(C)C(=O)N[C@@H](Cc1ccc(Br)cc1)C(=O)O [Peptide 9] (H-KFRRQRPR[dL]SHKGP[Nle][Aib][Phe(4-Br)]-OH; N-terminus and C-terminus assumed) | inactivity; also recorded: without inducing any vasoactive effects | 0.14 ± 0.056 | – | 80 ± 3 | 80 ± 4 | – | – | had an impact on the heart rate |
